molecular target: T1, human glucagon receptor (Homo sapiens, UniProt P47871); assay: Glucagon Receptor Binding Assay; details: more active isomer of indicated compounds; 125I-glucagon displacement, membranes of CHO cells expressing cloned human glucagon receptor
T1 construct: expressed in transfected cells; cell membranes used
Description: A stable CHO (Chinese hamster ovary) cell line expressing cloned human glucagon receptor was maintained as described (Chicchi et al. J Biol Chem 272, 7765-9 (1997); Cascieri et al. J Biol Chem 274, 8694-7 (1999)). […] After 4-12 hours incubation at room temperature, the radioactivity bound to the cell membranes was determined in a radioactive emission detection counter (Wallac-Microbeta). Data was analyzed using the software program Prism from GraphPad. The IC50 values were calculated using non-linear regression analysis assuming single site competition.

T1 sequence (P47871 26-477): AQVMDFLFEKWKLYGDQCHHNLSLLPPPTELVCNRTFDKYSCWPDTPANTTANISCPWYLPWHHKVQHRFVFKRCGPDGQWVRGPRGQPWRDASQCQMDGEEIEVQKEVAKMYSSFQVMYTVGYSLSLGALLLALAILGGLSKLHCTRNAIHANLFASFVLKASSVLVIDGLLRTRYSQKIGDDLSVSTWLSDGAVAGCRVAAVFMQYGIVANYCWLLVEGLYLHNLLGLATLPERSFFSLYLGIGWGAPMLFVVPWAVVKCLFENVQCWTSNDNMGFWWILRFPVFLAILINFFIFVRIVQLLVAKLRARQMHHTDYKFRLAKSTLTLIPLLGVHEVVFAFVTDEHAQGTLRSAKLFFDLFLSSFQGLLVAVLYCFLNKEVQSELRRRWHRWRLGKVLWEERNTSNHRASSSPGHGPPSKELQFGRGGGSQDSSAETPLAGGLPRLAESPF

Point of comparison: `CCCC(c1ccc(C(=O)NCCC(=O)O)cc1)C(c1ccc(Cl)cc1)c1ccnc2cc(OC(F)(F)F)ccc12` (stereo not drawn) [Example 24], IC50 100 pM. Against it:
- CCC[C@H](c1ccc(C(=O)NCCC(=O)O)cc1)C(c1ccc(Cl)cc1)c1ccnc2c(C)cc(Cl)cc12 (single isomer, unassigned) [Example 1] — 10-fold higher, 1000 pM
- CCC[C@H](c1ccc(C(=O)NCCC(=O)O)cc1)C(c1ccc(Cl)cc1)c1cccc2nc(OC)ccc12 (single isomer, unassigned) [Example 2] — 5-fold higher, 500 pM
- CCC[C@H](c1ccc(C(=O)NCCC(=O)O)cc1)C(c1ccc(Cl)cc1)c1cnc2cc(C(F)(F)F)ccc2c1 (single isomer, unassigned) [Example 3] — 50-fold higher, 5000 pM
- CCC[C@H](c1ccc(C(=O)NCCC(=O)O)cc1)C(c1ccc(Cl)cc1)c1ccnc2cc(F)c(F)cc12 (single isomer, unassigned) [Example 157] — 3-fold higher, 300 pM
- CCC[C@H](c1ccc(C(=O)NCCC(=O)O)cc1)C(c1ccc(Cl)cc1)c1ncnc2c(F)cc(C)cc12 (single isomer, unassigned) [Example 173] — 14-fold higher, 1400 pM
- CCCC(c1ccc(C(=O)NCCC(=O)O)cc1)C(c1ccc(Cl)cc1)c1nc(CC)c2cc(OC)ccc2n1 (single isomer, unassigned) [Example 174, N-(4-{1-[(4-Chlorophenyl)(4-Ethyl-6-Methoxyquinazolin-2-Yl)Methyl]Butyl}Benzoyl)-β-Alanine] — 17-fold higher, 1700 pM
- CCCC(c1ccc(C(=O)NCCC(=O)O)cc1)C(c1ccc(Cl)cc1)c1ccnc2cc(Cl)ccc12 (stereo not drawn) [Example 7] — 5-fold higher, 500 pM
- CCCC(c1ccc(C(=O)NCCC(=O)O)cc1)C(c1ccc(Cl)cc1)c1ccnc2c(Cl)cc(OC)cc12 (stereo not drawn) [Example 10] — 6-fold higher, 600 pM
- CCCC(c1ccc(C(=O)NCCC(=O)O)cc1)C(c1ccc(Cl)cc1)c1cc(C)nc2ccc(Cl)cc12 (stereo not drawn) [Example 23] — 14-fold higher, 1400 pM
- CCCC(c1ccc(C(=O)NCCC(=O)O)cc1)C(c1ccc(Cl)cc1)c1ccnc2c(C)cc(F)cc12 (stereo not drawn) [Example 35] — 8-fold higher, 800 pM
- CCCC(c1ccc(C(=O)NCCC(=O)O)cc1)C(c1ccc(Cl)cc1)c1cc(C)nc2cc(Cl)ccc12 (stereo not drawn) [Example 37] — 4-fold higher, 400 pM
- CCCC(c1ccc(C(=O)NCCC(=O)O)cc1)C(c1ccc(Cl)cc1)c1ccnc2cc(C)c(Cl)cc12 (stereo not drawn) [Example 50] — 5-fold higher, 500 pM
- CCCC(c1ccc(C(=O)NCCC(=O)O)cc1)C(c1ccc(Cl)cc1)c1ccnc2c(C)cc(OC(F)(F)F)cc12 (stereo not drawn) [Example 52] — 11-fold higher, 1100 pM
- O=C(O)CCNC(=O)c1ccc(C(CCC(F)(F)F)C(c2ccc(Cl)cc2)c2ccnc3cc(Cl)ccc23)cc1 (stereo not drawn) [Example 55] — 2-fold higher, 200 pM
- CCCC(c1ccc(C(=O)NCCC(=O)O)cc1)C(c1ccc(OC(F)(F)F)cc1)c1ccnc2cc(F)ccc12 (stereo not drawn) [Example 62] — 2-fold higher, 200 pM
- CCCC(c1ccc(C(=O)NCCC(=O)O)cc1)C(c1ccc(Cl)cc1)c1ccnc2c(F)c(C)c(F)cc12 (stereo not drawn) [Example 72] — 2-fold higher, 200 pM
- Cc1cc2nccc(C(c3ccc(Cl)cc3)C(CCC(F)(F)F)c3ccc(C(=O)NCCC(=O)O)cc3)c2cc1F (stereo not drawn) [Example 77] — 2-fold higher, 200 pM
- CCCC(c1ccc(C(=O)NCCC(=O)O)cc1)C(c1ccc(Cl)c(Cl)c1)c1ccnc2c(C)cc(Cl)cc12 (stereo not drawn) [Example 84] — 3-fold higher, 300 pM
- CCCC(c1ccc(C(=O)NCCC(=O)O)cc1)C(c1ccc(Cl)cc1)c1cccc2nc(OC3CCC3)ccc12 (stereo not drawn) [Example 108] — 4-fold higher, 400 pM
- CCCC(c1ccc(C(=O)NCCC(=O)O)cc1)C(c1ccc(Cl)cc1)c1cccc2nc(OCCOC)ccc12 (stereo not drawn) [Example 112] — 9-fold higher, 900 pM
- CCC(c1ccc(C(=O)NCCC(=O)O)cc1)C(c1ccc(OC(F)(F)F)cc1)c1cccc2nc(OC)ccc12 (stereo not drawn) [Example 115] — 3-fold higher, 300 pM
- CCCC(c1ccc(C(=O)NCCC(=O)O)cc1)C(c1ccc(Cl)cc1)c1ccc2nc(OC)ccc2c1 (stereo not drawn) [Example 120] — 18-fold higher, 1800 pM
- CCCC(c1ccc(C(=O)NCCC(=O)O)cc1)C(c1ccc(Cl)cc1)c1cncc2c(Cl)cccc12 (stereo not drawn) [Example 131] — 5-fold higher, 500 pM
- O=C(O)CCNC(=O)c1ccc(C(CCC(F)(F)F)C(c2ccc(Cl)cc2)c2cncc3cc(Cl)ccc23)cc1 (stereo not drawn) [Example 138] — 4-fold higher, 400 pM
- CCCC(c1ccc(C(=O)NCCC(=O)O)cc1)C(c1ccc(OC(F)(F)F)cc1)c1cncc2cc(Cl)ccc12 (stereo not drawn) [Example 139] — 3-fold higher, 300 pM
- CCCC(c1ccc(C(=O)NCCC(=O)O)cc1)C(c1ccc(Cl)cc1)c1cccc2ccc(OC)nc12 (stereo not drawn) [Example 146] — 120-fold higher, 12000 pM
- CCCC(c1ccc(C(=O)NCCC(=O)O)cc1)C(c1cccc(Cl)c1)c1ccnc2cc(F)c(F)cc12 (stereo not drawn) [Example 159] — 6-fold higher, 600 pM
- CCC[C@H](c1ccc(C(=O)NCCC(=O)O)cc1)C(c1ccc(Cl)cc1)c1cccc2nc(-c3ccn[nH]3)ccc12 (stereo partly drawn) [Example 171, N-(4-{(1S)-1-[(4-Chlorophenyl)(2-(1H-Pyrazol-5-Yl)Quinolin-5-Yl)Methyl]Butyl}Benzoyl)-β-Alanine] — 180-fold higher, 18000 pM
- CCCC(c1ccc(C(=O)NCCC(=O)O)cc1)C(c1ccc(Cl)cc1)c1nc(C2CCCCC2)c2ccc(C(F)(F)F)cc2n1 (stereo not drawn) [Example 179] — 45-fold higher, 4500 pM

Reference: patent publication US8436015B2, “Glucagon receptor antagonist compounds, compositions containing such compounds and methods of use” (Merck Sharp & Dohme Corp., priority 2008, dated 2013)
